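Values below derive from 48-hour exposures of cells grown in 96-well plates, with endpoints linearly interpolated between the two concentrations bracketing the appropriate inhibition level. GI50: concentration for 50% inhibition of growth. TGI: total growth inhibition.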
Legend:
Test in all cases: growth of human tumour cells (NCI), 48 h
COLO 205 colon = system: COLO 205 colon
HOP-62 NSCLC = system: HOP-62 NSCLC
HOP-92 NSCLC = system: HOP-92 NSCLC
K-562 leukemia = system: K-562 leukemia
KM12 colon = system: KM12 colon
LOX IMVI melanoma = system: LOX IMVI melanoma
MALME-3M melanoma = system: MALME-3M melanoma
NCI-H23 lung = system: NCI-H23 lung
NCI-H460 lung = system: NCI-H460 lung
NCI/ADR-RES ovarian = system: NCI/ADR-RES ovarian
OVCAR-3 ovarian = system: OVCAR-3 ovarian
SNB-19 CNS = system: SNB-19 CNS
SW-620 colon = system: SW-620 colon

Row | SMILES | TGI (COLO 205 colon) | TGI (HOP-62 NSCLC) | TGI (HOP-92 NSCLC) | TGI (K-562 leukemia) | TGI (KM12 colon) | TGI (LOX IMVI melanoma) | TGI (MALME-3M melanoma) | TGI (NCI-H23 lung) | TGI (NCI-H460 lung) | TGI (NCI/ADR-RES ovarian) | TGI (OVCAR-3 ovarian) | TGI (SNB-19 CNS) | TGI (SW-620 colon) | GI50 (COLO 205 colon) | GI50 (HOP-92 NSCLC) | GI50 (LOX IMVI melanoma) | GI50 (NCI-H23 lung) | GI50 (NCI/ADR-RES ovarian) | GI50 (SNB-19 CNS)
1 | COc1cc2c(/C=C3/C(=O)Nc4cc(C)c(O)cc43)c(Cl)[nH]c2cc1C | 4.62 µM | 10.9 µM | > 100 µM | 3.9 µM | 10.2 µM | 35.5 µM | 11.6 µM | 5.87 µM | 8.89 µM | 12.8 µM | 3.68 µM | 14.8 µM | 12.4 µM |  |  |  |  |  | 
2 | O=C1C=CC2(C=C1)O[C@H](CCc1ccccc1)[C@@H](CCc1ccccc1)O2 | > 100 µM | > 100 µM | 94.3 µM | > 100 µM | > 100 µM | 27.3 µM | > 100 µM | > 100 µM | > 100 µM | > 100 µM | > 100 µM | > 100 µM | > 100 µM |  |  |  |  |  | 
3 | C=CCn1c(C)nc2cc(Nc3nc(N4CCCC4)nc4nc[nH]c34)ccc21 | > 100 µM |  | > 100 µM |  |  | > 100 µM |  | > 100 µM |  | > 100 µM |  | > 100 µM |  | 3.16 µM | > 100 µM | > 100 µM | > 100 µM | > 100 µM | > 100 µM
4 | COc1ccc(/C=C2\CC3C4CC=C5C[C@@H](N6CCCC6)CC[C@]5(C)C4CC[C@]3(C)[C@H]2O)cc1OC (stereo partly specified) | 15.8 µM | 12.3 µM | 23.4 µM | 37.5 µM | 14.2 µM | 18.8 µM | 16.7 µM | 17.6 µM | 17.4 µM | 19.2 µM | 16.8 µM | 19.1 µM | 50 µM |  |  |  |  |  | 
5 | Cc1c2cnccc2c(C)c2c1c1ccccc1n2CCCCCCCl | > 34.1 µM | > 50 µM | > 50 µM | > 50 µM | > 50 µM | > 50 µM | > 50 µM | > 50 µM | > 50 µM | > 50 µM | > 50 µM | > 50 µM | > 50 µM |  |  |  |  |  | 
6 | Nc1nc2cc(COc3ccc(C(=O)O)cc3)ccc2nc1-c1ccccc1 | > 10 µM | > 10 µM | > 10 µM | > 10 µM | > 10 µM | > 10 µM |  | > 10 µM | > 10 µM |  | > 10 µM | > 10 µM | > 10 µM |  |  |  |  |  | 
7 | COc1ccc(C)cc1NC(=S)N/N=C/c1ccco1 | 65.5 µM | > 100 µM | > 100 µM | > 100 µM | > 100 µM | > 100 µM | > 100 µM | > 100 µM | > 100 µM | > 100 µM | > 100 µM | > 100 µM | > 100 µM |  |  |  |  |  | 
8 | O=C1Nc2ccccc2C1(O)Cc1ccccn1 (stereo unspecified) | > 100 µM | > 100 µM | > 100 µM | > 100 µM | > 100 µM | > 100 µM | > 100 µM | > 100 µM | > 100 µM | > 100 µM | > 100 µM | > 100 µM | > 100 µM |  |  |  |  |  | 
9 | O=C1Sc2sc(=S)sc2SC1c1ccccc1 (stereo unspecified) | > 63.6 µM | > 100 µM | > 82.4 µM | > 70.7 µM | > 100 µM | > 82.6 µM | > 83.5 µM | > 100 µM | > 100 µM | > 100 µM | > 31.6 µM | > 100 µM | 39.3 µM |  |  |  |  |  | 
10 | C=C1C(=O)OC2/C=C(CO)/C=C\C3OC3(C)CC(OC(=O)/C(C)=C/COC(C)=O)C12 (stereo unspecified) | 2.99 µM | 35.5 µM | 5.94 µM | > 20.7 µM | 14.2 µM | 3.05 µM | 3.38 µM | 8.53 µM | 15.3 µM | 15.8 µM | 6.68 µM | 25.1 µM | 3.24 µM |  |  |  |  |  | 
11 | COc1cc2c(cc1OCCCN1CCOCC1)N=C[C@@H]1CCCN1C2=O | 4.55 µM | 62.8 µM | 7.4 µM | > 100 µM | 43.4 µM | > 100 µM | 33.6 µM |  | > 100 µM | > 100 µM | 8.08 µM | > 100 µM | 13.8 µM |  |  |  |  |  | 
12 | COc1cccc(/C=N/[N+](C)(C)C)c1O | > 10 µM | > 10 µM |  | > 10 µM | > 10 µM | > 10 µM | > 10 µM | > 10 µM | > 10 µM | > 10 µM | > 10 µM | > 10 µM | > 10 µM |  |  |  |  |  | 

— PubChem BioAssay (NCI)
